Data taken from PMC5218480 (PLoS ONE, 2017).

Test system: MV-4-11 cells
Experiment: Gene expression microarray analysis (Affymetrix PrimeView) and GSEA
Assay type: cell-based, human
Conditions: gene FGFR1OP, FGFR1 oncogene partner; Azacitidine 1 mM; LIST F

## Nc1ncn([C@@H]2O[C@H](CO)[C@@H](O)[C@H]2O)c(=O)n1 [azacitidine]
  RFU, FGFR1OP (ProbeSet 11751329_s_at): 410.33 RFU
